In patent publication US11547681B2, “N-acylethanolamide derivatives and uses thereof” (ELIEM THERAPEUTICS, INC., priority 2016, dated 2023):

Experiment: in vitro
Details: for Measured concentration of analyte PEA, 0 min / Measured concentration of analyte PEA, 10 min / Measured concentration of analyte PEA, 20 min / Measured concentration of analyte PEA, 30 min / Measured concentration of analyte PEA, 60 min / % Remaining of Initial, 0 min / % Remaining of Initial, 10 min / % Remaining of Initial, 20 min / % Remaining of Initial, 30 min / % Remaining of Initial, 60 min: 1 μM; for % Remaining of Initial, 0 min / % Remaining of Initial, 10 min / % Remaining of Initial, 20 min / % Remaining of Initial, 30 min / % Remaining of Initial, 60 min / microsomal CLint at 1 μM / half-life at 1 μM: microsomes; for % Remaining of Initial, 0 min: 0 h; for % Remaining of Initial, 30 min: 0.5 h; for % Remaining of Initial, 60 min: 1 h
Protocol: The reaction mixture, minus cofactors, was prepared as described below. The test article was added into the reaction mixture at a final concentration of 1 μM. […] An aliquot of the reaction mixture (without cofactor) was equilibrated in a shaking water bath at 37° C. for 3 minutes. The reaction was initiated by the addition of cofactor, and the mixture was incubated in a shaking water bath at 37° C. Aliquots (100 μL) were withdrawn at 0, 10, 20, 30, and 60 minutes. All samples were immediately combined with 400 μL of ice-cold 50/50 acetonitrile/H2O containing 0.1% formic acid and internal standard to terminate the reaction. The samples were then mixed and centrifuged to precipitate proteins. Calibration standards were prepared in matched matrix. All samples and standards were assayed by LC-MS/MS using electrospray ionization for both the dosed prodrug I-9 and the expected drug (PEA). Analytical conditions are outlined in Appendix 4-1. The test article concentration at each time point was compared to the test article concentration at time 0 to determine the percent remaining at each time point. Half-lives were calculated using GraphPad software, fitting to a single-phase exponential decay equation.
Reaction mixture, minus cofactors, was prepared as described below. Test article was added into the reaction mixture at a final concentration of 1 μM. […] An aliquot of the reaction mixture (without cofactor) was equilibrated in a shaking water bath at 37° C. for 3 minutes. The reaction was initiated by the addition of cofactor, and the mixture was incubated in a shaking water bath at 37° C. Aliquots (100 μL) were withdrawn at 0, 10, 20, 30, and 60 minutes. Test article samples were immediately combined with 300 μL of ice-cold acetonitrile containing 1% formic acid. Control samples were immediately combined with 400 μL of ice-cold 50/50 acetonitrile (ACN)/dH2O containing 0.1% formic acid and internal standard to terminate the reaction. Samples were then mixed and centrifuged to precipitate proteins. Calibration standards were prepared in matched matrix. Samples and standards were assayed by LC-MS/MS using electrospray ionization for both dosed prodrug and expected drug (PEA). Analytical conditions are outlined in Appendix 8-1. Test article concentration at each time point was compared to test article concentration at time 0 to determine the percent remaining at each time point. Half-lives were calculated using GraphPad software, fitting to a single-phase exponential decay equation.
Reaction mixture, minus cofactors, was prepared as described below. Test article was added into the reaction mixture at a final concentration of 1 μM. […] An aliquot of the reaction mixture (without cofactor) was equilibrated in a shaking water bath at 37° C. for 5 minutes. Reaction was initiated by the addition of cofactor, and the mixture was incubated in a shaking water bath at 37° C. Aliquots (100 μL) were withdrawn at 0, 10, 20, 30, and 60 minutes. Test article samples were immediately combined with 300 μL of ice-cold acetonitrile containing 1% formic acid. Control samples were immediately combined with 400 μL of ice-cold 50/50 acetonitrile (ACN)/dH2O containing 0.1% formic acid and internal standard to terminate the reaction. Samples were then mixed and centrifuged to precipitate proteins. Calibration standards were prepared in matched matrix. Samples and standards were assayed by LC-MS/MS using electrospray ionization for both the dosed prodrug and the expected drug (PEA). Analytical conditions are outlined in Appendix 10-1. Test article concentration at each time point was compared to the test article concentration at time 0 to determine the percent remaining at each time point. Half-lives were calculated using GraphPad software, fitting to a single-phase exponential decay equation.
Reaction mixture, minus cofactors, was prepared as described below. Test article was added into the reaction mixture at a final concentration of 1 μM.

[1] = both, human, calculated value in parentheses
[2] = both, human, Calculated half-life (in parentheses)
[3] = male, Sprague-Dawley, rat, calculated value in parentheses
[4] = male, Sprague-Dawley, rat, Calculated half-life (in parentheses)
[5] = male, Sprague-Dawley, rat, Half-life

Row | Measured concentration of analyte PEA, 0 min (both, human) | Measured concentration of analyte PEA, 10 min (both, human) | Measured concentration of analyte PEA, 20 min (both, human) | Measured concentration of analyte PEA, 30 min (both, human) | Measured concentration of analyte PEA, 60 min (both, human) | % Remaining of Initial, 0 min (both, human) | % Remaining of Initial, 10 min (both, human) | % Remaining of Initial, 20 min (both, human) | % Remaining of Initial, 30 min (both, human) | % Remaining of Initial, 60 min (both, human) | microsomal CLint at 1 μM (both, human) | microsomal CLint at 1 μM [1] | half-life at 1 μM [2] | half-life at 1 μM (both, human, Half-life) | Measured concentration of analyte PEA, 0 min (male, Sprague-Dawley, rat) | Measured concentration of analyte PEA, 10 min (male, Sprague-Dawley, rat) | Measured concentration of analyte PEA, 20 min (male, Sprague-Dawley, rat) | Measured concentration of analyte PEA, 30 min (male, Sprague-Dawley, rat) | Measured concentration of analyte PEA, 60 min (male, Sprague-Dawley, rat) | % Remaining of Initial, 0 min (male, Sprague-Dawley, rat) | Compound | also measured
1 | 0 µM | 0 µM | 0 µM | 0 µM | 0 µM | 100% | 82% | 58% | 66% | 68% | < 23.1 µL/min/mg | 14.3 µL/min/mg | 1.62 h | > 1 h | 0.14 µM | 0.064 µM | 0.017 µM | 0.0098 µM | 0.0012 µM | 100% | CCCCC/C=C\C/C=C\CCCCCCCC(=O)OCCNC(=O)CCCCCCCCCCCCCCC [Compound I-6] | % Remaining of Initial, 10 min (male, Sprague-Dawley, rat): 68%; % Remaining of Initial, 20 min (male, Sprague-Dawley, rat): 67%; % Remaining of Initial, 30 min (male, Sprague-Dawley, rat): 62%; % Remaining of Initial, 60 min (male, Sprague-Dawley, rat): 53%; microsomal CLint at 1 μM (male, Sprague-Dawley, rat): < 23.1 µL/min/mg; microsomal CLint at 1 μM [3]: 21.9 µL/min/mg; half-life at 1 μM [4]: 1.05 h; half-life at 1 μM [5]: > 1 h
2 | 0 µM | 0.026 µM | 0.017 µM | 0.019 µM | 0.027 µM | 100% | 83% | 79% | 74% | 53% | < 23.1 µL/min/mg | 20 µL/min/mg | 1.15 h | > 1 h | 0.032 µM | 0.039 µM | 0.018 µM | 0.0067 µM | 0 µM | 100% | CCCCCCCCCCCCCCCC(=O)NCCOC(=O)CCC(=O)OCC(COC(=O)CCCCCCC)OC(=O)CCCCCCC (centres unmarked) [Compound I-3, PEA-Succinate-Glycerol-Di-Caprylic] | % Remaining of Initial, 10 min (male, Sprague-Dawley, rat): 81%; % Remaining of Initial, 20 min (male, Sprague-Dawley, rat): 88%; % Remaining of Initial, 30 min (male, Sprague-Dawley, rat): 72%; % Remaining of Initial, 60 min (male, Sprague-Dawley, rat): 68%; microsomal CLint at 1 μM (male, Sprague-Dawley, rat): < 23.1 µL/min/mg; microsomal CLint at 1 μM [3]: 12.4 µL/min/mg; half-life at 1 μM [4]: 1.87 h; half-life at 1 μM [5]: > 1 h
